Experimental data reported in ChEMBL document CHEMBL5291721, “A preclinical secondary pharmacology resource illuminates target-adverse drug reaction associations of marketed drugs” (Nat Commun, 2023).

Columns and labels:
Acetylcholinesterase = Acetylcholinesterase (Homo sapiens, UniProt P22303); type: functional
D(1A) dopamine receptor = D(1A) dopamine receptor (Homo sapiens, UniProt P21728)
Prothrombin = Prothrombin (Homo sapiens, UniProt P00734); type: functional
[1] = target: T1, 5-hydroxytryptamine receptor 1A (Homo sapiens, UniProt P08908)
T1 sequence (P08908 whole entry): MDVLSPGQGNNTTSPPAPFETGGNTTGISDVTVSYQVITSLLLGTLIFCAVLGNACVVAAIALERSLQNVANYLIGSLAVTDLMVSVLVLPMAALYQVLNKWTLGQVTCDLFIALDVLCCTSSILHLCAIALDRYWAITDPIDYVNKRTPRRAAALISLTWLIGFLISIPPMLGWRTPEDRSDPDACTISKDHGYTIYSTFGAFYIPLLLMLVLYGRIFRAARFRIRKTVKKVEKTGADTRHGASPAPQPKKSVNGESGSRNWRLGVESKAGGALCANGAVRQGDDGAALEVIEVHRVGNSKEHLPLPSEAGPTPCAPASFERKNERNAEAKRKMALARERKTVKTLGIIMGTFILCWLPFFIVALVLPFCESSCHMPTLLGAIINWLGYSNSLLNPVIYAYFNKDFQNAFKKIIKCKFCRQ

[2] = target: Vascular endothelial growth factor receptor 2 (Homo sapiens, UniProt P35968); type: functional
Mu-type opioid receptor = Mu-type opioid receptor (Homo sapiens, UniProt P35372)
Progesterone receptor [3] = target: T2, Progesterone receptor (Homo sapiens, UniProt P06401)
T2 sequence (P06401 whole entry): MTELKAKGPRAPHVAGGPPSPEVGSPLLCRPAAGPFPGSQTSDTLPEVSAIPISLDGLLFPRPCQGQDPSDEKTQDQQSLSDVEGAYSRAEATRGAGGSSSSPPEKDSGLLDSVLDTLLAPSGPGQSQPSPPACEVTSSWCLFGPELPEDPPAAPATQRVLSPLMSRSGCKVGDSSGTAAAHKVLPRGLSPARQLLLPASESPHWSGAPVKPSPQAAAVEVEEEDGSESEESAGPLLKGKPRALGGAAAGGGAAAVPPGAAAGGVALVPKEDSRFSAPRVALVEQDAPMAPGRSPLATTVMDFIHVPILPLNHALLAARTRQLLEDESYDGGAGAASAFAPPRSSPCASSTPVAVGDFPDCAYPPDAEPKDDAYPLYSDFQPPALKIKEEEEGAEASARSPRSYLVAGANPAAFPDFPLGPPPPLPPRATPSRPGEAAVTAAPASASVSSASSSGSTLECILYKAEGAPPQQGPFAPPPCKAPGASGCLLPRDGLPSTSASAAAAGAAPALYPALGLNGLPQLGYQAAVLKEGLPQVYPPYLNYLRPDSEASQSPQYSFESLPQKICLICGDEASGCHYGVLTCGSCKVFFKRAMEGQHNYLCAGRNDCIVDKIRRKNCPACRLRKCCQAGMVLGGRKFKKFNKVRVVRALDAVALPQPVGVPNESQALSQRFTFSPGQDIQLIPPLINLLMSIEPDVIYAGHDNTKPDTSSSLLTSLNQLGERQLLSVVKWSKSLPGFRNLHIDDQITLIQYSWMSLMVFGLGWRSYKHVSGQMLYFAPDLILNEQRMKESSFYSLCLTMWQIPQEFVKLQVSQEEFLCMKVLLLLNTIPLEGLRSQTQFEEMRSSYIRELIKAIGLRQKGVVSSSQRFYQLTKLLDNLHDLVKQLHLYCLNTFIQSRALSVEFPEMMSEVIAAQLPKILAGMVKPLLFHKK

[4] = target: T3, Prostaglandin G/H synthase 1 (Homo sapiens, UniProt P23219); type: functional
[5] = target: T3, Prostaglandin G/H synthase 1; type: functional; remark: listed apart in the source
Vasopressin V1a receptor = Vasopressin V1a receptor (Homo sapiens, UniProt P37288)
B2 bradykinin receptor = target: T4, B2 bradykinin receptor (Homo sapiens, UniProt P30411)
T4 sequence (P30411 whole entry): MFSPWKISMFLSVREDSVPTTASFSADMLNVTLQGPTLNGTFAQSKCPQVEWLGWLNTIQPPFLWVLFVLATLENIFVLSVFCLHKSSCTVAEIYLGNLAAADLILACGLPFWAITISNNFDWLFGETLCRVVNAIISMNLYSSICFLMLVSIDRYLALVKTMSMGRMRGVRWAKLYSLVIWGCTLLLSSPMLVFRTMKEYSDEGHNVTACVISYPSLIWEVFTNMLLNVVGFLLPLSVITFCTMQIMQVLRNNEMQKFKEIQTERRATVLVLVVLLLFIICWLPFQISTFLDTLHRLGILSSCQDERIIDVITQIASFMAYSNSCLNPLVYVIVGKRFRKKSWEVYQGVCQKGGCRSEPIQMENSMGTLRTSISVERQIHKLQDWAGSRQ

[6] = target: T1, 5-hydroxytryptamine receptor 1A; type: functional, cell-based
[7] = target: T5, Alpha-2B adrenergic receptor (Homo sapiens, UniProt P18089)
T5 sequence (P18089 whole entry): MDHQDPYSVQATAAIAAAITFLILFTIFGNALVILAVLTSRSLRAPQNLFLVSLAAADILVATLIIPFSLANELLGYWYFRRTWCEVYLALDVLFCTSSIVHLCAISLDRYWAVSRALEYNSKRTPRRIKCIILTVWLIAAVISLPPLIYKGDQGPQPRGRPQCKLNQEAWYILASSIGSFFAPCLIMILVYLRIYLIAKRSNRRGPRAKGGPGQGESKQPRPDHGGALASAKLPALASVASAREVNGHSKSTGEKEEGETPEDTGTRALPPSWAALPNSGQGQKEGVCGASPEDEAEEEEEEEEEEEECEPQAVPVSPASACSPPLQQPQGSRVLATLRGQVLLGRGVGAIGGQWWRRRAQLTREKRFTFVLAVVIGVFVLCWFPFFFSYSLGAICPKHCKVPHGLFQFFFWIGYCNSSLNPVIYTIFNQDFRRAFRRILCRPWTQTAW

[8] = target: Muscarinic acetylcholine receptor M3 (Homo sapiens, UniProt P20309)
Histamine H1 receptor = Histamine H1 receptor (Homo sapiens, UniProt P35367)
Progesterone receptor [9] = target: T2, Progesterone receptor; type: functional
[10] = target: Sodium-dependent serotonin transporter (Homo sapiens, UniProt P31645)

Measured: AC50
Note: assay procedure not described here.

Chain of Vascular endothelial growth factor receptor 2 (P35968 whole entry): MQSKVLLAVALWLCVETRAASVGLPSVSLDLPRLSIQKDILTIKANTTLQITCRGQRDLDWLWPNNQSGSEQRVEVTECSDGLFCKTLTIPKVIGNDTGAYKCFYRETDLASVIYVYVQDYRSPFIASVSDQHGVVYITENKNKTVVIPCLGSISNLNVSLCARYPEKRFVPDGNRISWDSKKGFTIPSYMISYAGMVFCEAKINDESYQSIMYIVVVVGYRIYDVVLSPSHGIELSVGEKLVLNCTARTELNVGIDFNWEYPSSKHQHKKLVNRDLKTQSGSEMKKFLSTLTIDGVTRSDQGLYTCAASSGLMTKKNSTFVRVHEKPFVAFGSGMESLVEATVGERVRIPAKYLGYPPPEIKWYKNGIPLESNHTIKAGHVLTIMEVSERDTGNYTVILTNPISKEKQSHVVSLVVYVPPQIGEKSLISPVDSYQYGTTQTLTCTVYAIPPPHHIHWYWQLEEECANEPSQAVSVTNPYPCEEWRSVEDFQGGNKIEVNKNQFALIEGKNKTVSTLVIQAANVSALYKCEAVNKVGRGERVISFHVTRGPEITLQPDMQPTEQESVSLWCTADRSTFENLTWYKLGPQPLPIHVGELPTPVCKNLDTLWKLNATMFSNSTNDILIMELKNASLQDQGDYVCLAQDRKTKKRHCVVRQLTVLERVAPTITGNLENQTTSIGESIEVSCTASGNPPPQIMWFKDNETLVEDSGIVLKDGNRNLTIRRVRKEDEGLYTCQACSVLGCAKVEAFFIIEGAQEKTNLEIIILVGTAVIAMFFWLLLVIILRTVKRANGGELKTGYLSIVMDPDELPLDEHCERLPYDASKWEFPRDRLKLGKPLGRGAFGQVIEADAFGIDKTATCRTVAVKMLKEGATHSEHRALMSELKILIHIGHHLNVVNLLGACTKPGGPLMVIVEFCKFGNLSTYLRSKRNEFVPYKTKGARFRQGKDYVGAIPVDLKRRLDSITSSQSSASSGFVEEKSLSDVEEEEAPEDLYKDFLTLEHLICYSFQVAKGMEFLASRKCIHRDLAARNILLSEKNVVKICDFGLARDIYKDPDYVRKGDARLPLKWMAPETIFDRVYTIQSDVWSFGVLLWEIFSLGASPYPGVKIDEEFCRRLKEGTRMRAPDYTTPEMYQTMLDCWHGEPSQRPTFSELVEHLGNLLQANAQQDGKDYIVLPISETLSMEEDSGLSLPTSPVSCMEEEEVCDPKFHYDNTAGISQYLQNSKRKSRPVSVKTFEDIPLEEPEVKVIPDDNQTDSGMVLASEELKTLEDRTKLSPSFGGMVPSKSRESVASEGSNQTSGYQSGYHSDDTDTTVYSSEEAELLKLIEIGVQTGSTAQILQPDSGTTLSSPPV
Chain of D(1A) dopamine receptor (P21728 whole entry): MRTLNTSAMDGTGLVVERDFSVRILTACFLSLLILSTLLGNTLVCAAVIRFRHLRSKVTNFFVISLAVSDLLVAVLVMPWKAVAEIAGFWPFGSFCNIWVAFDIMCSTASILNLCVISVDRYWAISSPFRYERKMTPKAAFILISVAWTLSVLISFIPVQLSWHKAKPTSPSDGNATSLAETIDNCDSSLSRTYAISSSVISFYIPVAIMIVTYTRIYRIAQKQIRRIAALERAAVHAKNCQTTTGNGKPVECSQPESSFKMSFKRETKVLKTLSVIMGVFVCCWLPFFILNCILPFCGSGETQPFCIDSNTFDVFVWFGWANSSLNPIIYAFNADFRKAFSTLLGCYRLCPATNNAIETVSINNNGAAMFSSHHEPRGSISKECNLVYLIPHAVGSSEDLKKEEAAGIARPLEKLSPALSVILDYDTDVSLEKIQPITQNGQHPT
Chain of Mu-type opioid receptor (P35372 whole entry): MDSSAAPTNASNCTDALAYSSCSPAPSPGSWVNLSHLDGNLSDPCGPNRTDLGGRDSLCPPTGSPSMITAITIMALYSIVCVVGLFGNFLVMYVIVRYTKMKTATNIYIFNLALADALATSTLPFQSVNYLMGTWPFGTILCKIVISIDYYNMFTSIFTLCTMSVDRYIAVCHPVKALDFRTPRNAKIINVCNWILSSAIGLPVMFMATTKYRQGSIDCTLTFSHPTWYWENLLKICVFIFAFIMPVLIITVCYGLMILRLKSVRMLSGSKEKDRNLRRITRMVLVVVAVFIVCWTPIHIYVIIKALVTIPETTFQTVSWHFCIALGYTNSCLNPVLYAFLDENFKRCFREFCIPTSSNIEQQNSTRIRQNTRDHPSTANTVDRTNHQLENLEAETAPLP
T3 sequence (P23219 whole entry): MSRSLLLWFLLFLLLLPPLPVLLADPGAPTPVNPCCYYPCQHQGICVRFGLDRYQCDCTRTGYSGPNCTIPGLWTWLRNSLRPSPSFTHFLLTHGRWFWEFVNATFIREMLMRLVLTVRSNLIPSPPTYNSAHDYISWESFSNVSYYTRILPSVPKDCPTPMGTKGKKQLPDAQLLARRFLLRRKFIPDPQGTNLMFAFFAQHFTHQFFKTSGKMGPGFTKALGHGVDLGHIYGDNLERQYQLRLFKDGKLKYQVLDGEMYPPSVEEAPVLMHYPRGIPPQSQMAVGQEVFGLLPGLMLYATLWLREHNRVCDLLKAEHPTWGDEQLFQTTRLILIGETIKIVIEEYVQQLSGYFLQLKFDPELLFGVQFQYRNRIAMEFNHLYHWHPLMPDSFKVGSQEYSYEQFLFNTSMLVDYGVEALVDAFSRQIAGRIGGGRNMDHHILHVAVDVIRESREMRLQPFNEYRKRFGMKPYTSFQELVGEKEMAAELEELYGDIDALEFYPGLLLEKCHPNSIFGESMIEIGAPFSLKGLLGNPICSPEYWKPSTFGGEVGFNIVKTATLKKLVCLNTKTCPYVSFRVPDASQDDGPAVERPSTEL
Chain of Acetylcholinesterase (P22303 whole entry): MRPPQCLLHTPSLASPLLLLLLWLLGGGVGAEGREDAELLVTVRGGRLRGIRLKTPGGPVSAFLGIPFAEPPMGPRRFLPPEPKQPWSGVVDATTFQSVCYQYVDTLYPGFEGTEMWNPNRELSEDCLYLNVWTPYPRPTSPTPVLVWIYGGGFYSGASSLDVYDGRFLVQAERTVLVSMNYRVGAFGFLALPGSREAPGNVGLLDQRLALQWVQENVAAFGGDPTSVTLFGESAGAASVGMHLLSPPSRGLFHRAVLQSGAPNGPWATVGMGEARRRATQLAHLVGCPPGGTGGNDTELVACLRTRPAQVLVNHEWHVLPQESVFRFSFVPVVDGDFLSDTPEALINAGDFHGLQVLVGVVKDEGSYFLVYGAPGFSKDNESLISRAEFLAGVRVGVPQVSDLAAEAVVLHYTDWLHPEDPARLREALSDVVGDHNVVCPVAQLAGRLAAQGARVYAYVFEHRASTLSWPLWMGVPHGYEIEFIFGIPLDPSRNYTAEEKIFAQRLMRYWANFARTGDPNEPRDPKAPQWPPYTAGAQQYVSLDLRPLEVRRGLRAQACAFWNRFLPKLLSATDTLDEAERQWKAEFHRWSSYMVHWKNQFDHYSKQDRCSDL
Chain of Vasopressin V1a receptor (P37288 whole entry): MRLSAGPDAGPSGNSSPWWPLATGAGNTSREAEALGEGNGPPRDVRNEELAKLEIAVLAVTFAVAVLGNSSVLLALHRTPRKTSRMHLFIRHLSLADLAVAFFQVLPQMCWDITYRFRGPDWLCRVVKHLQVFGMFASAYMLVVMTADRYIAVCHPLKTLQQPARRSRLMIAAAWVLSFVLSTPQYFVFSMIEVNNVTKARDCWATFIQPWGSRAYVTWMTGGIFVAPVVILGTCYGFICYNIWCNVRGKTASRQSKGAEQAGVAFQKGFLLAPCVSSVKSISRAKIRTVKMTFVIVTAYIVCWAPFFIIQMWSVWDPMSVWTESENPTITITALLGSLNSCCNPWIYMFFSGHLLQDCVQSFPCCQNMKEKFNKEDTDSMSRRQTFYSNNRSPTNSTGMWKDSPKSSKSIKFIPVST
Chain of Muscarinic acetylcholine receptor M3 (P20309 whole entry): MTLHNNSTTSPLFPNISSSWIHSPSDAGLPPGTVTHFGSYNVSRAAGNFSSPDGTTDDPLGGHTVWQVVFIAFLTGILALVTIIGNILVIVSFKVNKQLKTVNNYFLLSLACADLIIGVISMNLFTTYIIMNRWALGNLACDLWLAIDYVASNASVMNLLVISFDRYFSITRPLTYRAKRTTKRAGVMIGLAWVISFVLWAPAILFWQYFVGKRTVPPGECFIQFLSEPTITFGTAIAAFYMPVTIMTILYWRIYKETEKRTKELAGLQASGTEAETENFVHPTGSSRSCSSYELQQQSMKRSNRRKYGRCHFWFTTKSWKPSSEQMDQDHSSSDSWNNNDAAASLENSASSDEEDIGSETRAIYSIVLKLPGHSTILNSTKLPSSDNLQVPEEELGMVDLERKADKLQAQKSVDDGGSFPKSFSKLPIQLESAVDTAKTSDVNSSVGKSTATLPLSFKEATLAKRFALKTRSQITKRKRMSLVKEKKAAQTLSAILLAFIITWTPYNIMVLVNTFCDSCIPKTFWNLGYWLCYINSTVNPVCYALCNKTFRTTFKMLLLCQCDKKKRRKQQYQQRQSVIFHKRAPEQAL
Chain of Histamine H1 receptor (P35367 whole entry): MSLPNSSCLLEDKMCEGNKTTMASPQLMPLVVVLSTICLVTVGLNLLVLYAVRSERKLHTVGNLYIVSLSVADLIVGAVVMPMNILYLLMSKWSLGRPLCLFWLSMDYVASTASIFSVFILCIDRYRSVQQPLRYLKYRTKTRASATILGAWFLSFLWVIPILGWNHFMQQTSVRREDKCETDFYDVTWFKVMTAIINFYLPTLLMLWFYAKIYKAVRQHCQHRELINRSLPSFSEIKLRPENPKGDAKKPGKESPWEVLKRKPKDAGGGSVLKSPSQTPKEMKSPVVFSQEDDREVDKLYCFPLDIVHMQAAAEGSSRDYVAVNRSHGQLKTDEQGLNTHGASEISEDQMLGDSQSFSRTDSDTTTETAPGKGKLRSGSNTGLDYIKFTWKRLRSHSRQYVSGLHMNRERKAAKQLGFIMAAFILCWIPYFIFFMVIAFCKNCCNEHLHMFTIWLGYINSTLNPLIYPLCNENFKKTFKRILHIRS

OC[C@H]1NC[C@H](O)[C@@H](O)[C@H]1O
> 30 µM: Acetylcholinesterase | D(1A) dopamine receptor | Prothrombin | [1] | [2] | Mu-type opioid receptor | Progesterone receptor [3] | [4] | [5]

CC#CC(=O)N1CCC[C@H]1c1nc(-c2ccc(C(=O)Nc3ccccn3)cc2)c2c(N)nccn12 [ACALABRUTINIB]
> 30 µM: Acetylcholinesterase | D(1A) dopamine receptor | Prothrombin | [1] | Mu-type opioid receptor | Progesterone receptor [3] | [4] | [5]
2.01 µM: [2]

C=CCOc1ccc(CC(=O)O)cc1Cl [ALCLOFENAC]
> 3 µM: [5]
> 30 µM: Acetylcholinesterase | D(1A) dopamine receptor | Prothrombin | [1] | [2] | Mu-type opioid receptor | Progesterone receptor [3] | [4]

CC(=O)Oc1ccccc1C(=O)O [ASPIRIN]
> 10 µM: [6]
> 30 µM: Acetylcholinesterase | Vasopressin V1a receptor | B2 bradykinin receptor | D(1A) dopamine receptor | Prothrombin | [1] | [2] | Mu-type opioid receptor | Progesterone receptor [3]

NC(=O)C1(N2CCCCC2)CCN(CCCN2c3ccccc3CCc3ccccc32)CC1 [CARPIPRAMINE]
2.83 µM: [1]
> 30 µM: Acetylcholinesterase | Prothrombin | [2] | Progesterone receptor [3] | [4] | [5]
0.342 µM: Mu-type opioid receptor
0.0928 µM: D(1A) dopamine receptor

CN1CCN(C(c2ccccc2)c2ccc(Cl)cc2)CC1 (stereo not drawn) [CHLORCYCLIZINE]
13.9 µM: [1]
6.89 µM: D(1A) dopamine receptor
> 30 µM: Acetylcholinesterase | Prothrombin | [2] | Mu-type opioid receptor | Progesterone receptor [3] | [4] | [5]

O=P1(N(CCCl)CCCl)NCCCO1 (stereo not drawn) [CYCLOPHOSPHAMIDE ANHYDROUS]
> 30 µM: Acetylcholinesterase | D(1A) dopamine receptor | Prothrombin | [1] | [2] | Mu-type opioid receptor | Progesterone receptor [3] | [4] | [5]

CC(C)Nc1cccnc1N1CCN(C(=O)c2cc3cc(NS(C)(=O)=O)ccc3[nH]2)CC1 [DELAVIRDINE]
> 30 µM: Acetylcholinesterase | D(1A) dopamine receptor | Prothrombin | [1] | [2] | Progesterone receptor [3] | [4] | [5]
13.9 µM: Mu-type opioid receptor

C[C@H](Nc1ncnc2[nH]cnc12)c1cc2cccc(Cl)c2c(=O)n1-c1ccccc1 [DUVELISIB]
> 30 µM: Acetylcholinesterase | [7] | Vasopressin V1a receptor | [8] | D(1A) dopamine receptor | Prothrombin | Histamine H1 receptor | [6] | [1] | Mu-type opioid receptor | Progesterone receptor [9] | Progesterone receptor [3] | [4] | [5] | [10]

C[C@]12CC[C@@H]3c4ccc(OC(=O)N(CCCl)CCCl)cc4CC[C@H]3[C@@H]1CC[C@@H]2OP(=O)(O)O [ESTRAMUSTINE PHOSPHATE]
> 30 µM: Acetylcholinesterase | Prothrombin | [1] | Mu-type opioid receptor | Progesterone receptor [3] | [4] | [5]
19.5 µM: [2]
25.4 µM: D(1A) dopamine receptor

O=c1[nH]c2ccccc2n1CCN1CCN(c2cccc(C(F)(F)F)c2)CC1 [FLIBANSERIN]
> 30 µM: Acetylcholinesterase | [2] | Progesterone receptor [3] | [4] | [5]
1.3 µM: Mu-type opioid receptor
0.003 µM: [1]
> 10 µM: Prothrombin
2.43 µM: D(1A) dopamine receptor

O=C(O)[C@H](O)[C@@H](O)[C@H](O)[C@H](O)CO [GLUCONIC ACID]
> 30 µM: Acetylcholinesterase | D(1A) dopamine receptor | Prothrombin | [1] | [2] | Mu-type opioid receptor | Progesterone receptor [3] | [4] | [5]

N=C(N)NCC1COc2ccccc2O1 (stereo not drawn) [GUANOXAN]
1.27 µM: [1]
> 30 µM: Acetylcholinesterase | Prothrombin | [2] | Mu-type opioid receptor | Progesterone receptor [3] | [4] | [5]
23.4 µM: D(1A) dopamine receptor

N#Cc1ccnc(N2C(=O)CC[C@H]2C(=O)N(c2cncc(F)c2)[C@H](C(=O)NC2CC(F)(F)C2)c2ccccc2Cl)c1 [IVOSIDENIB]
> 30 µM: Acetylcholinesterase | D(1A) dopamine receptor | Prothrombin | [1] | [2] | Mu-type opioid receptor | Progesterone receptor [3] | [4] | [5]

CNC1(c2ccccc2Cl)CCCCC1=O (stereo not drawn) [KETAMINE]
7.63 µM: Mu-type opioid receptor
> 30 µM: Acetylcholinesterase | D(1A) dopamine receptor | Prothrombin | [1] | [2] | Progesterone receptor [3] | [4] | [5]

CCCCCCO[C@@H](C)c1cccc(-c2csc(NC(=O)c3cc(Cl)c(/C=C(\C)C(=O)O)c(Cl)c3)n2)c1OC [LUSUTROMBOPAG]
9.34 µM: Progesterone receptor [3]
1.54 µM: D(1A) dopamine receptor
6.96 µM: [1]
19.3 µM: Prothrombin
2.15 µM: [4]
6.42 µM: [5]
> 30 µM: Acetylcholinesterase | [2] | Mu-type opioid receptor

Cc1cc(C)cc(OCC2CNC(=O)O2)c1 (stereo not drawn) [METAXALONE]
> 30 µM: Acetylcholinesterase | D(1A) dopamine receptor | Prothrombin | [1] | [2] | Mu-type opioid receptor | Progesterone receptor [3] | [4] | [5]

CCCCCCCC/C=C\CCCCCCCC(=O)O [OLEIC ACID]
> 30 µM: Acetylcholinesterase | D(1A) dopamine receptor | Prothrombin | [1] | [2] | Mu-type opioid receptor
6.68 µM: [4]
3.54 µM: [5]
